The values below come from patent publication US10399987B2, “TGF beta receptor antagonists” (BRISTOL-MYERS SQUIBB COMPANY, priority 2015, dated 2019).

This test has as its target HIS-TGFβR1 T204D (Homo sapiens (Human), UniProt P36897, T204D). Briefly: TGFβR1 HIS T204D HTRF assay (labeled small molecule probe, anti-HIS detection antibody). The settings on record: 1 nM HIS-TGFβR1 T204D, probe at Kd, 1 hour at room temperature, eleven concentrations. Type of test: binding.

Molecules are shown by their SMILES.

Chain of HIS-TGFβR1 T204D (P36897 34-503 T204D): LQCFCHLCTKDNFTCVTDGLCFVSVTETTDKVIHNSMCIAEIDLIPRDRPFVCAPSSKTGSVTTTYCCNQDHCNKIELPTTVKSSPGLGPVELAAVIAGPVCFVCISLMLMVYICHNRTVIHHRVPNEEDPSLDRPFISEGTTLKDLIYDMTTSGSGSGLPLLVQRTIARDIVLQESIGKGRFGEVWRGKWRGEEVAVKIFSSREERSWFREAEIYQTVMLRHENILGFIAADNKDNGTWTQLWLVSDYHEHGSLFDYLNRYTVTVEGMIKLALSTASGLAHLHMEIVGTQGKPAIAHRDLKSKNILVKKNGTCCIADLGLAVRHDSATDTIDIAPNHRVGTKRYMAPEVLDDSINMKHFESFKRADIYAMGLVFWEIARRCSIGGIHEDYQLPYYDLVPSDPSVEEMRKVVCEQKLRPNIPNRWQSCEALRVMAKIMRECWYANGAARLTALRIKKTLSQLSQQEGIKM

In turn, `Fc1cnccc1Nc1nc(-c2cccc(C(F)F)n2)nc2[nH]ccc12` [Example 2, 2-(6-(difluoromethyl)pyridin-2-yl)-N-(3-fluoropyridin-4-yl)-7H-pyrrolo[2,3-d]pyrimidin-4-amine] had an IC50 of 0.25 nM. This lies in the sub-nanomolar range.
Then `CC(=O)Nc1cc(Nc2nc(-c3cccc(C(F)F)n3)nc3[nH]ccc23)ccn1` [Example 3, N-(4-((2-(6-(difluoromethyl)pyridin-2-yl)-7H-pyrrolo[2,3-d]pyrimidin-4-yl)amino)pyridin-2-yl)acetamide], with 0.78 nM; and `O=C(CN1CCCC1)Nc1cc(Nc2nc(-c3cccc(C(F)(F)F)n3)nc3[nH]ccc23)ccn1` [Example 4, 2-(pyrrolidin-1-yl)-N-(4-((2-(6-(trifluoromethyl)pyridin-2-yl)-7H-pyrrolo[2,3-d]pyrimidin-4-yl)amino)pyridin-2-yl)acetamide], with 0.42 nM; and `CN1CCN(CC(=O)Nc2cc(Nc3nc(-c4cccc(C(F)(F)F)n4)nc4[nH]ccc34)ccn2)CC1` [Example 5, 2-(4-methylpiperazin-1-yl)-N-(4-((2-(6-(trifluoromethyl)pyridin-2-yl)-7H-pyrrolo[2,3-d]pyrimidin-4-yl)amino)pyridin-2-yl)acetamide], with 0.53 nM.
The figure for `Cc1c[nH]c2nc(-c3cccc(C(F)F)n3)nc(Nc3ccncc3F)c12` [Example 6, 2-(6-(difluoromethyl)pyridin-2-yl)-N-(3-fluoropyridin-4-yl)-5-methyl-7H-pyrrolo[2,3-d]pyrimidin-4-amine] is 0.76 nM; for `CN1CCN(Cc2c[nH]c3nc(-c4cccc(C(F)F)n4)nc(Nc4ccncc4F)c23)CC1` [Example 7, 2-(6-(difluoromethyl)pyridin-2-yl)-N-(3-fluoropyridin-4-yl)-5-((4-methylpiperazin-1-yl)methyl)-7H-pyrrolo[2,3-d]pyrimidin-4-amine] it is 3.7 nM.
The figure for `Fc1cnccc1Nc1nc(-c2ccccn2)nc2[nH]ccc12` [Example 8, N-(3-fluoropyridin-4-yl)-2-(pyridin-2-yl)-7H-pyrrolo[2,3-d]pyrimidin-4-amine] is 0.26 nM; for `c1ccc(-c2nc(-n3ccc4cnccc43)c3cc[nH]c3n2)nc1` [Example 9, 2-(pyridin-2-yl)-4-(1H-pyrrolo[3,2-c]pyridin-1-yl)-7H-pyrrolo[2,3-d]pyrimidine] it is 1.2 nM; for `Cc1nc(-c2nc(Nc3ccncc3F)c3cc[nH]c3n2)ccc1F` [Example 11, 2-(5-fluoro-6-methylpyridin-2-yl)-N-(3-fluoropyridin-4-yl)-7H-pyrrolo[2,3-d]pyrimidin-4-amine] it is 0.6 nM.
`FC(F)c1cccc(-c2nc(-n3ccc4cnccc43)c3cc[nH]c3n2)n1` [Example 12, 2-(6-(difluoromethyl)pyridin-2-yl)-4-(1H-pyrrolo[3,2-c]pyridin-1-yl)-7H-pyrrolo[2,3-d]pyrimidine] came in with an IC50 of 0.64 nM.
`Cc1nc(-c2nc(Nc3cc(Cl)ncc3F)c3cc[nH]c3n2)ccc1F` [Example 13, N-(2-chloro-5-fluoropyridin-4-yl)-2-(5-fluoro-6-methylpyridin-2-yl)-7H-pyrrolo[2,3-d]pyrimidin-4-amine]: it took 4 nM to reach half-maximal inhibition (IC50).
Then `Fc1ccc(-c2nc(Nc3ccncc3F)c3cc[nH]c3n2)nc1` [Example 14, 2-(5-fluoropyridin-2-yl)-N-(3-fluoropyridin-4-yl)-7H-pyrrolo[2,3-d]pyrimidin-4-amine], with 0.91 nM; and `FC(F)c1cccc(-c2nc(Nc3ccnc(Cl)n3)c3cc[nH]c3n2)n1` [Example 15, N-(2-chloropyrimidin-4-yl)-2-(6-(difluoromethyl)pyridin-2-yl)-7H-pyrrolo[2,3-d]pyrimidin-4-amine], with 160 nM.
The compound `CC(=O)Nc1cc(Nc2nc(-c3cccc(C(F)F)n3)nc3[nH]ccc23)c(F)cn1` [Example 16, N-(4-((2-(6-(difluoromethyl)pyridin-2-yl)-7H-pyrrolo[2,3-d]pyrimidin-4-yl)amino)-5-fluoropyridin-2-yl)acetamide] registered an IC50 of 0.71 nM.
The figure for `COC(=O)Nc1cc(Nc2nc(-c3cccc(C(F)F)n3)nc3[nH]ccc23)ccn1` [Example 17, methyl (4-((2-(6-(difluoromethyl)pyridin-2-yl)-7H-pyrrolo[2,3-d]pyrimidin-4-yl)amino)pyridin-2-yl)carbamate] is 0.76 nM.
Then `CC(=O)Nc1cc(Nc2nc(-c3ccc(F)c(C)n3)nc3[nH]ccc23)c(F)cn1` [Example 18, N-(5-fluoro-4-((2-(5-fluoro-6-methylpyridin-2-yl)-7H-pyrrolo[2,3-d]pyrimidin-4-yl)amino)pyridin-2-yl)acetamide], with 1.3 nM.
Then `O=C1CCCN1c1cc(Nc2nc(-c3cccc(C(F)F)n3)nc3[nH]ccc23)ccn1` [Example 19, 1-(4-((2-(6-(difluoromethyl)pyridin-2-yl)-7H-pyrrolo[2,3-d]pyrimidin-4-yl)amino)pyridin-2-yl)pyrrolidin-2-one], with 5.8 nM; and `CC(=O)Nc1cc(Nc2nc(-c3ccccn3)nc3[nH]ccc23)ccn1` [Example 21, N-(4-((2-(pyridin-2-yl)-7H-pyrrolo[2,3-d]pyrimidin-4-yl)amino)pyridin-2-yl)acetamide], with 0.9 nM.
For the compound `CC(=O)Nc1cc(Nc2nc(-c3cccc(C)n3)nc3[nH]ccc23)ccn1` [Example 22, N-(4-((2-(6-methylpyridin-2-yl)-7H-pyrrolo[2,3-d]pyrimidin-4-yl)amino)pyridin-2-yl)acetamide], the IC50 came out at 1 nM.
Then `CC(=O)Nc1cc(Nc2nc(-c3ccc(C(F)(F)F)cn3)nc3[nH]ccc23)ccn1` [Example 23, N-(4-((2-(5-(trifluoromethyl)pyridin-2-yl)-7H-pyrrolo[2,3-d]pyrimidin-4-yl)amino)pyridin-2-yl)acetamide], with 4.7 nM; and `CCC(=O)Nc1cc(Nc2nc(-c3cccc(C(F)(F)F)n3)nc3[nH]ccc23)ccn1` [Example 24, N-(4-((2-(6-(trifluoromethyl)pyridin-2-yl)-7H-pyrrolo[2,3-d]pyrimidin-4-yl)amino)pyridin-2-yl)propionamide], with 0.74 nM; and `CC(=O)Nc1cc(Nc2nc(-c3cccc(C(F)F)n3)nc3[nH]cc(C)c23)ccn1` [Example 25, N-(4-((2-(6-(difluoromethyl)pyridin-2-yl)-5-methyl-7H-pyrrolo[2,3-d]pyrimidin-4-yl)amino)pyridin-2-yl)acetamide], with 1.5 nM.
Then `CC(C)(C)CC(=O)Nc1cc(Nc2nc(-c3cccc(C(F)(F)F)n3)nc3[nH]ccc23)ccn1` [Example 26, 3,3-dimethyl-N-(4-((2-(6-(trifluoromethyl)pyridin-2-yl)-7H-pyrrolo[2,3-d]pyrimidin-4-yl)amino)pyridin-2-yl)butanamide], with 2.7 nM; and `CC(C)CC(=O)Nc1cc(Nc2nc(-c3cccc(C(F)(F)F)n3)nc3[nH]ccc23)ccn1` [Example 27, 3-methyl-N-(4-((2-(6-(trifluoromethyl)pyridin-2-yl)-7H-pyrrolo[2,3-d]pyrimidin-4-yl)amino)pyridin-2-yl)butanamide], with 0.85 nM; and `CS(=O)(=O)Nc1cc(Nc2nc(-c3cccc(C(F)(F)F)n3)nc3[nH]ccc23)ccn1` [Example 28, N-(4-((2-(6-(trifluoromethyl)pyridin-2-yl)-7H-pyrrolo[2,3-d]pyrimidin-4-yl)amino)pyridin-2-yl)methanesulfonamide], with 970 nM.
`CC(=O)Nc1cc(Nc2nc(-c3ccc(F)c(C)n3)nc3[nH]ccc23)ccn1` [Example 29, N-(4-((2-(5-fluoro-6-methylpyridin-2-yl)-7H-pyrrolo[2,3-d]pyrimidin-4-yl)amino)pyridin-2-yl)acetamide] had an IC50 of 0.77 nM. This IC50 is about 1300-fold lower than that of the compound before.
Then `COC(=O)Nc1cc(Nc2nc(-c3cccc(C(F)(F)F)n3)nc3[nH]ccc23)ccn1` [Example 30, methyl (4-((2-(6-(trifluoromethyl)pyridin-2-yl)-7H-pyrrolo[2,3-d]pyrimidin-4-yl)amino)pyridin-2-yl)carbamate], with 2.5 nM; and `CC(=O)Nc1nccc(Nc2nc(-c3cccc(C(F)F)n3)nc3[nH]ccc23)c1F` [Example 31, N-(4-((2-(6-(difluoromethyl)pyridin-2-yl)-7H-pyrrolo[2,3-d]pyrimidin-4-yl)amino)-3-fluoropyridin-2-yl)acetamide], with 0.37 nM.
Then `O=C(CN1CCOCC1)Nc1cc(Nc2nc(-c3cccc(C(F)(F)F)n3)nc3[nH]ccc23)ccn1` [Example 32, 2-morpholino-N-(4-((2-(6-(trifluoromethyl)pyridin-2-yl)-7H-pyrrol[2,3-d]pyrimidin-4-yl)amino)pyridin-2-yl)acetamide], with 0.77 nM.
Then `Cc1cccc(-c2nc(Nc3ccncc3F)c3c(C)c[nH]c3n2)n1` [Example 33, N-(3-fluoropyridin-4-yl)-5-methyl-2-(6-methylpyridin-2-yl)-7H-pyrrolo[2,3-d]pyrimidin-4-amine], with 0.25 nM; and `Cc1c[nH]c2nc(-c3cccc(C(F)(F)F)n3)nc(Nc3ccncc3F)c12` [Example 34, N-(3-fluoropyridin-4-yl)-5-methyl-2-(6-(trifluoromethyl)pyridin-2-yl)-7H-pyrrolo[2,3-d]pyrimidin-4-amine], with 4.5 nM; and `CC(C)(O)CNCc1c[nH]c2nc(-c3cccc(C(F)F)n3)nc(Nc3ccncc3F)c12` [Example 35, 1-(((2-(6-(difluoromethyl)pyridin-2-yl)-4-((3-fluoropyridin-4-yl)amino)-7H-pyrrolo[2,3-d]pyrimidin-5-yl)methyl)amino)-2-methylpropan-2-ol], with 1.4 nM.
The compound `CC(=O)Nc1nccc(Nc2nc(-c3cccc(C(F)(F)F)n3)nc3[nH]ccc23)c1F` [Example 36, N-[3-fluoro-4-({2-[6-(trifluoromethyl)pyridin-2-yl]-7H-pyrrolo[2,3-d]pyrimidin-4-yl}amino)pyridin-2-yl]acetamide] registered an IC50 of 1.7 nM.
Then `Cc1cnccc1Nc1nc(-c2cccc(C(F)(F)F)n2)nc2[nH]ccc12` [Example 37, 3-methyl-N-{2-[6-(trifluoromethyl)pyridin-2-yl]-7H-pyrrolo[2,3-d]pyrimidin-4-yl}pyridin-4-amine], with 0.87 nM.

The term IC50 denotes the concentration at which inhibition is half-maximal. The low end stands for greater potency, the high end for weaker potency.
